Test results taken from ChEMBL document CHEMBL1153384, “Synthesis, antimalarial activity, and preclinical pharmacology of a novel series of 4'-fluoro and 4'-chloro analogues of amodiaquine. Identification of a suitable "back-up" compound for N-tert-butyl isoquine” (J Med Chem, 2009).
Blank lines part the entries; values can stand above or below the compound they belong to.

Columns and labels:
[1] = test system: Plasmodium falciparum; assay: Antimalarial activity against chloroquine-sensitive Plasmodium falciparum 3D7; type: functional, organism-based
[2] = biological target: β-hematin formation (no protein target); assay: Inhibition of beta-hematin formation as molar equivalent relative to hemin causing blockade in BHIA
[3] = test system: Plasmodium falciparum; assay: Antimalarial activity against chloroquine-sensitive Plasmodium falciparum HB3; type: functional, organism-based
[4] = test system: Plasmodium falciparum; assay: Antimalarial activity against chloroquine-resistant Plasmodium falciparum TM6; type: functional, organism-based
[5] = Toxicity in po dosed mouse assessed as drug level causing no observed adverse effects administered as single dose; type: organism-based; conditions: in vivo, read-out: Activity
[6] = test system: Mus musculus; assay: Toxicity in po dosed mouse assessed as induction of hematological toxicity at drug dose above no observed adverse effects level; type: organism-based; conditions: in vivo
[7] = Toxicity in po dosed mouse assessed as drug level causing no observed adverse effects administered as once daily for 4 days; type: organism-based; conditions: in vivo, read-out: Activity
[8] = test system: Mus musculus; assay: Toxicity in po dosed mouse assessed as induction of hepatotoxicity at drug dose above no observed adverse effects level; type: organism-based; conditions: in vivo
[9] = Partition coefficient, log P of the compound; type: physicochemical; conditions: octanol/water
[10] = test system: Kidney; assay: Biodistribution in Wistar rat kidney assessed as [3H]labeled drug level at 54 umol/kg, iv after 24 hrs; type: ADME, organism-based; conditions: in vivo
[11] = test system: Liver; assay: Biodistribution in cannulated Wistar rat liver assessed as [3H]labeled drug level at 54 umol/kg, iv after 5 hrs; type: ADME, organism-based; conditions: in vivo
[12] = Drug metabolism in cannulated Wistar rat assessed as biliary excretion of [3H]labeled drug level at 54 umol/kg, iv after 5 hrs; type: ADME, organism-based, Bile; conditions: in vivo
[13] = test system: Rattus norvegicus; assay: Metabolic stability in Wistar rat assessed as 2-Chloro-5-(7-chloro-quinolin-4-ylamino)-benzoic acid level at 54 umol/kg, iv administered as [3H]labeled drug after 5 hrs; type: ADME, organism-based; conditions: in vivo
[14] = test system: Plasmodium berghei; assay: Antimalarial activity as reduced parasitaemia against Plasmodium berghei ANKA infected CD1 mice (Mus musculus) perorally dosed daily over 4 days; type: functional; conditions: po, 96 h
[15] = test system: Kidney; assay: Biodistribution in cannulated Wistar rat kidney assessed as [3H]labeled drug level at 54 umol/kg, iv after 5 hrs; type: ADME, organism-based; conditions: in vivo
[16] = test system: Liver; assay: Biodistribution in Wistar rat liver assessed as [3H]labeled drug level at 54 umol/kg, iv after 24 hrs; type: ADME, organism-based; conditions: in vivo
[17] = Biodistribution in cannulated Wistar rat bile assessed as [3H]labeled drug level at 54 umol/kg, iv after 5 hrs; type: ADME, organism-based; conditions: in vivo
[18] = Toxicity against Wistar rat hepatocytes after 6 hrs by trypan blue exclusion method; type: cell-based, Hepatocyte; conditions: read-out: TC50
[19] = test system: Rattus norvegicus; assay: Metabolic stability in Wistar rat assessed as [3-(tert-Butylamino-methyl)-4-chloro-phenyl]-(7-chloro-1-oxy-quinolin-4-yl)-amine level at 54 umol/kg, iv administered as [3H]labeled drug after 5 hrs; type: ADME, organism-based; conditions: in vivo
[20] = Therapeutic index, ratio of IC50 for Wistar rat hepatocytes to IC50 for Plasmodium falciparum HB3; type: cell-based, Hepatocyte
[21] = test system: Rattus norvegicus; assay: Metabolic stability in Wistar rat assessed as 2-[2-Chloro-5-(7-chloro-quinolin-4-ylamino)-benzylamino]-2-methyl-propionic acid level at 54 umol/kg, iv administered as [3H]labeled drug after 5 hrs; type: ADME, organism-based; conditions: in vivo
[22] = test system: Lung; assay: Biodistribution in Wistar rat lung assessed as [3H]labeled drug level at 54 umol/kg, iv after 24 hrs; type: ADME, organism-based; conditions: in vivo
[23] = Distribution coefficient, log D at pH 7.4; conditions: octanol/water
[24] = test system: Rattus norvegicus; assay: Drug elimination in Wistar rat assessed as [3H]labeled drug level at 54 umol/kg, iv after 24 hrs; type: ADME, organism-based; conditions: in vivo
[25] = biological target: Cytochrome P450 2D6 (Homo sapiens, UniProt P10635); assay: Inhibition of human CYP2D6; type: ADME
[26] = Clearance in iv dosed mouse; type: ADME, organism-based; conditions: in vivo
[27] = biological target: T1, Cytochrome P450 3A4 (Homo sapiens, UniProt P08684); assay: Inhibition of human CYP3A4 using PPR substrate; type: ADME
[28] = biological target: T1, Cytochrome P450 3A4; assay: Inhibition of human CYP3A4 using DEF substrate
[29] = test system: Plasmodium yoelii; assay: Antimalarial activity as minimal concentration for parasite elimination at day 23 against Plasmodium yoelii 17X intravenously inoculated CD1 mice (Mus musculus) dosed 1 hrs post infection then daily for 4 days
[30] = biological target: Cytochrome P450 2C9 (Homo sapiens, UniProt P11712); assay: Inhibition of human CYP2C9; type: ADME
[31] = biological target: Cytochrome P450 2C19 (Homo sapiens, UniProt P33261); assay: Inhibition of human CYP2C19; type: ADME
[32] = test system: Plasmodium yoelii; assay: Antimalarial activity as reduced parasitaemia against Plasmodium yoelii 17X infected CD1 mice (Mus musculus) perorally dosed daily for 4 days; type: functional; conditions: po, 96 h
[33] = biological target: T2, Cytochrome P450 1A2 (Homo sapiens, UniProt P05177); assay: Inhibition of human CYP1A2; type: ADME
T2 sequence (P05177 whole entry): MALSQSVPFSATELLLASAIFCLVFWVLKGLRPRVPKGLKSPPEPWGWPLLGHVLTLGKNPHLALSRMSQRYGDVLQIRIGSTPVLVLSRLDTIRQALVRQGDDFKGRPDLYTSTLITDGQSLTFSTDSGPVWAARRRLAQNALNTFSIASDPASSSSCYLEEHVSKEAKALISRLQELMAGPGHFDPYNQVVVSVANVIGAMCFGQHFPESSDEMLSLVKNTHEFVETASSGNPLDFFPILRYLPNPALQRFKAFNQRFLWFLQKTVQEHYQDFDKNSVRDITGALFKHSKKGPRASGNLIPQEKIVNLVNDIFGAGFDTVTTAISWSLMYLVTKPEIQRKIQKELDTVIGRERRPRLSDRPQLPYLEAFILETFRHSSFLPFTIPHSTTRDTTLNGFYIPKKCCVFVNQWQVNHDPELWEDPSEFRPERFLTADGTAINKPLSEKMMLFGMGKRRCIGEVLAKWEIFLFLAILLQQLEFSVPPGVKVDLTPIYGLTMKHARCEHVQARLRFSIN

[34] = Oral bioavailability in rat; type: ADME, organism-based; conditions: in vivo
[35] = Clearance in iv dosed rat; type: ADME, organism-based; conditions: in vivo
[36] = Oral bioavailability in mouse; type: ADME, organism-based; conditions: in vivo
[37] = biological target: T3, Cytochrome P450 2C8 (Homo sapiens, UniProt P10632); assay: Inhibition of human CYP2C8; type: ADME
T3 sequence (P10632 whole entry): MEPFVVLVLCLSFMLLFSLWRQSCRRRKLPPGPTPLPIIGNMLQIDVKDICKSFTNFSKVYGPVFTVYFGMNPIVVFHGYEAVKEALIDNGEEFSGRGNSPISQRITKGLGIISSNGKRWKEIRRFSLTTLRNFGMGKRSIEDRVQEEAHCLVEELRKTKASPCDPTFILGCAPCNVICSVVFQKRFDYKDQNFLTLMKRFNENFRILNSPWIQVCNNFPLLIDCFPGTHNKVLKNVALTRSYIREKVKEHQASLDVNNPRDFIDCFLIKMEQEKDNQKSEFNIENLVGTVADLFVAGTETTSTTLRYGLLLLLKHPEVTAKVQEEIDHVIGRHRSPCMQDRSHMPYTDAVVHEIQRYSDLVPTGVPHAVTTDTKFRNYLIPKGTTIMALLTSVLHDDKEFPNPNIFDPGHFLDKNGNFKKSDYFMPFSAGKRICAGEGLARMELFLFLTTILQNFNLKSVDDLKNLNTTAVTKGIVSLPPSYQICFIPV

[38] = test system: Plasmodium yoelii; assay: In vivo antimalarial activity against Plasmodium yoelii NS peroral dosage; type: functional; conditions: po
[39] = test system: Plasmodium falciparum; assay: Antimalarial activity against […] Plasmodium falciparum PH3; type: functional, organism-based
[40] = test system: Plasmodium falciparum; assay: Antimalarial activity against […] Plasmodium falciparum Dd2; type: functional, organism-based
[41] = test system: Plasmodium falciparum; assay: Antimalarial activity against chloroquine-resistant Plasmodium falciparum TM4; type: functional, organism-based
[42] = test system: Plasmodium falciparum; assay: Antimalarial activity against chloroquine-resistant Plasmodium falciparum K1
[43] = test system: Plasmodium falciparum; assay: Antimalarial activity against chloroquine-resistant Plasmodium falciparum V1/S; type: functional, organism-based; conditions: V1S
[44] = test system: Plasmodium falciparum; assay: Antimalarial activity against chloroquine-resistant Plasmodium falciparum J164; type: functional, organism-based

T1 sequence (P08684 whole entry): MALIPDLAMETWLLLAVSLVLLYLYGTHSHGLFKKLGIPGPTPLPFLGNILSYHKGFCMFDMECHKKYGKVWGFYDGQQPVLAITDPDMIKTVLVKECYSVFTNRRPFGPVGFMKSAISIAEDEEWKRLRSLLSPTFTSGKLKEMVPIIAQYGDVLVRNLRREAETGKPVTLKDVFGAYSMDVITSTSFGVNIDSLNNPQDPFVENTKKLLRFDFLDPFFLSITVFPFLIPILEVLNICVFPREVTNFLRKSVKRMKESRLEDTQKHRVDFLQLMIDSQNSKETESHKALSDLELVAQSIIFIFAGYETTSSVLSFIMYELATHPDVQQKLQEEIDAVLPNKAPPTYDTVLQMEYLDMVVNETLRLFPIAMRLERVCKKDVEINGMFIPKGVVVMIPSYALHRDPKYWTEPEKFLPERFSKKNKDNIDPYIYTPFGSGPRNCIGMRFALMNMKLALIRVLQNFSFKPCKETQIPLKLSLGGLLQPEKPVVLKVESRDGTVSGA
Chain of Cytochrome P450 2D6 (P10635 whole entry): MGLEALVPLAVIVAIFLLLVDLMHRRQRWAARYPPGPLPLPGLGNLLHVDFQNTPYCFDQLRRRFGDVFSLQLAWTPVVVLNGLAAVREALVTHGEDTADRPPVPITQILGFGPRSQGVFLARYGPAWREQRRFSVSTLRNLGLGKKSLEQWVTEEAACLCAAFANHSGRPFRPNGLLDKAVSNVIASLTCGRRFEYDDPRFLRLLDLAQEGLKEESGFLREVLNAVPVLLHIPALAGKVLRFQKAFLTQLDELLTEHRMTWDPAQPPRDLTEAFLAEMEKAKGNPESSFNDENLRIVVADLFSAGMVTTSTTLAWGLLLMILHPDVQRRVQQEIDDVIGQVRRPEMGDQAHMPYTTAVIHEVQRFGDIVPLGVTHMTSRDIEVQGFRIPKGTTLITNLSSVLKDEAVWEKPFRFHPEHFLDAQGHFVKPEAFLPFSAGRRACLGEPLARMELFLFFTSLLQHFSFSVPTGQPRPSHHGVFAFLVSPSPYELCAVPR
Chain of Cytochrome P450 2C19 (P33261 whole entry): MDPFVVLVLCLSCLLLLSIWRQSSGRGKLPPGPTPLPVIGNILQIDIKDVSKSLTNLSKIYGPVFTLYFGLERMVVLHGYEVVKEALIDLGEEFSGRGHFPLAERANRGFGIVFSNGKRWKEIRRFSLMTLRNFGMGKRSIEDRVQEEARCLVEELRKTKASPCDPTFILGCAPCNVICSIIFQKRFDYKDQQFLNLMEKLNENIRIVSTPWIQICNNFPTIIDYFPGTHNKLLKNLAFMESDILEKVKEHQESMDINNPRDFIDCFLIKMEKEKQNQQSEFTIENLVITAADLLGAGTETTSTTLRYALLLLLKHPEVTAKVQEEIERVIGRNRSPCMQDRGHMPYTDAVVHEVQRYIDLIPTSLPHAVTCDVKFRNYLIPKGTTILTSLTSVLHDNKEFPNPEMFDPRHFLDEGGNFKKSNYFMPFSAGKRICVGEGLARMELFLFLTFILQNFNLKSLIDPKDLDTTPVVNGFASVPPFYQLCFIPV
Chain of Cytochrome P450 2C9 (P11712 whole entry): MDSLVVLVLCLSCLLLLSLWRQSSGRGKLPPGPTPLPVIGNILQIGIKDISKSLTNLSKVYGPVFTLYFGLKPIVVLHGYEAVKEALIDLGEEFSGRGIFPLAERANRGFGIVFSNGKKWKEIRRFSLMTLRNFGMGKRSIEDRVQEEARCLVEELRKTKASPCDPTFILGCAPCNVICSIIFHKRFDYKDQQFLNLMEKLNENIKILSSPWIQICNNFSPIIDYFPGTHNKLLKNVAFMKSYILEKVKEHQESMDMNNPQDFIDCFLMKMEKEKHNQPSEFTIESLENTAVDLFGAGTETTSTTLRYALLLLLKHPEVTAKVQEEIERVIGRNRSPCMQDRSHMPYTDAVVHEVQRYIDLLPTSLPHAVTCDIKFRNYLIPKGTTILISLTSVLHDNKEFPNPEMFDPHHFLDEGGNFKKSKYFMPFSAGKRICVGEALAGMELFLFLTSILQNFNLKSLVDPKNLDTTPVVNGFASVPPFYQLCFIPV

- IC50 [1]: 27.2 nM
- IC50 [2]: 1.78 molar ratio
SMILES: Fc1ccc(Nc2ccnc3cc(Cl)ccc23)cc1Cn1ccnc1

SMILES: Clc1ccc2c(Nc3ccc(Cl)c(CN4CCCCC4)c3)ccnc2c1
- IC50 [3]: 12.3 nM
- IC50 [4]: 9.4 nM
- IC50 [1]: 25.7 nM

- IC50 [1]: 27.3 nM
SMILES: CCN(CC)Cc1cc(Nc2ccnc3cc(Cl)ccc23)ccc1F

SMILES: CCCCN(CCCC)Cc1cc(Nc2ccnc3cc(Cl)ccc23)ccc1Cl
- IC50 [3]: 144 nM
- IC50 [4]: 96.3 nM
- IC50 [1]: 345 nM

SMILES: CCN(CC)CCCC(C)Nc1ccnc2cc(Cl)ccc12 (stereo not given) [CHLOROQUINE]
- NOAEL [5]: 300 mg/kg
- Activity [6]: Toxic
- NOAEL at 96 h [7]: 300 mg/kg
- Activity [8]: Toxic

SMILES: CC(C)(C)NCc1cc(Nc2ccnc3cc(Cl)ccc23)ccc1Cl
- logP [9]: 5.59
- Drug uptake [10]: 0.31 %ID
- Drug uptake [11]: 12.41%
- Activity [12]: 14.88%
- IC50 [3]: 8.1 nM
- Activity [13]: 11.39%
- ED50 [14]: 13.4 mg/kg
- ED90 [14]: 27.3 mg/kg
- IC50 [4]: 4.5 nM
- Drug uptake [15]: 5.43 %ID
- Drug uptake [16]: 1.87 %ID
- Activity [17]: 14.9%
- CC50 at 6 h [18]: 120000 nM
- IC50 [1]: 7.8 nM
- Activity [19]: 4.52%
- selectivity ratio [20]: 11900
- IC50 [2]: 1.66 molar ratio
- Activity [21]: 60.76%
- Drug uptake [22]: 0.25 %ID
- logD [23]: 3
- Activity [24]: 61%

- IC50 [1]: 85.2 nM
SMILES: CCCN(CCC)Cc1cc(Nc2ccnc3cc(Cl)ccc23)ccc1F

- IC50 [25]: 7000 nM
- clearance [26]: 219 mL/min/kg
- IC50 [27]: Active
- IC50 [28]: > 100000 nM
- IC50 [30]: 75000 nM
- IC50 [1]: 7.8 nM
- IC50 [31]: 39000 nM
- IC50 [33]: 23000 nM
- bioavailability [34]: 17%
- clearance [35]: 89.2 mL/min/kg
- bioavailability [36]: 21%
- IC50 [37]: 13000 nM
SMILES: CCN(CC)Cc1ccc(Nc2ccnc3cc(Cl)ccc23)cc1O [ISOQUINE]
- Activity [29]: >40 mg/kg
- ED50 [32]: 5.2 mg/kg
- ED90 [32]: 7.6 mg/kg
- ED50 [38]: 1.6 mg/kg

- IC50 [1]: 551 nM
SMILES: Fc1ccc(Nc2ccnc3cc(Cl)ccc23)cc1CN1CCOCC1

SMILES: Fc1ccc(Nc2ccnc3cc(Cl)ccc23)cc1CN1CCCC1
- IC50 [39]: 25 nM
- IC50 [40]: 36.9 nM
- IC50 [3]: 63.7 nM
- IC50 [4]: 60.8 nM
- IC50 [41]: 46.9 nM
- IC50 [42]: 45.9 nM
- IC50 [43]: 52.5 nM
- IC50 [1]: 29.7 nM
- IC50 [44]: 34.7 nM

SMILES: CCN1CCN(Cc2cc(Nc3ccnc4cc(Cl)ccc34)ccc2Cl)CC1
- IC50 [3]: 9.6 nM
- IC50 [4]: 10.3 nM
- IC50 [1]: 39.7 nM

SMILES: O=C(NCc1cc([N+](=O)[O-])ccc1F)c1ncc[nH]1
- IC50 [3]: 10.1 nM
- IC50 [4]: 5 nM

SMILES: Clc1ccc2c(Nc3ccc(Cl)c(CN4CCCC4)c3)ccnc2c1
- IC50 [3]: 15.2 nM
- IC50 [4]: 4.2 nM

- IC50 [2]: 2.65 molar ratio
SMILES: Clc1ccc2c(Nc3cccc(Cn4ccnc4)c3)ccnc2c1

- IC50 [1]: 6 nM
SMILES: CC(C)(C)NCc1ccc(Nc2ccnc3cc(Cl)ccc23)cc1O
